Laboratory results from the SangsterLogP compilation.

Experiment: method code SF-AS, from DOI: 10.1016/0006-2952(77)90261-1, PMID: 588293
Conditions: not given

Row | Compound | logP
1 | CCC1(CC(C)C(C)C)C(=O)NC(=O)NC1=O (configuration not stated) | 2.02

Same assay, conditions: pH 7.4

Row | Compound | logD
2 | C=C(Br)CC1(C(C)C)C(=O)NC(=O)NC1=O | 1.47
3 | CCC1(C2=CCCCC2)C(=O)NC(=O)NC1=O | 1.77
4 | C=C(Br)CC1(C(C)CCC)C(=O)NC(=O)NC1=O (configuration not stated) | 2.09
5 | C=C(Br)CC1(C(C)C)C(=O)NC(=O)N(C)C1=O (configuration not stated) | 2.11
6 | C=CCC1(C2C=CCC2)C(=O)NC(=O)NC1=O (configuration not stated) | 1.51
7 | C=C(Br)CC1(C(C)CC)C(=O)NC(=O)NC1=O (configuration not stated) | 1.72
8 | CCCC1(CC)C(=O)NC(=O)NC1=O | 0.66
9 | C=CCC1(CC(C)(C)C)C(=O)NC(=O)NC1=O | 1.71
10 | CCC1(C2=CCCCCC2)C(=O)NC(=O)N(C)C1=O (configuration not stated) | 2.82
11 | C=CCC1(CC(=C)Br)C(=O)NC(=O)NC1=O | 1.37
12 | CCCCCCC1(CC)C(=O)NC(=O)NC1=O | 2.46
13 | CCC1(C2=CCCCCC2)C(=O)NC(=O)NC1=O | 2.17
14 | C=CCC1(C(C)CCC)C(=O)NC(=O)NC1=O (configuration not stated) | 1.97
15 | CCC1(C2=CC3CCC(C2)C3)C(=O)NC(=O)N(C)C1=O (configuration not stated) | 3.15
16 | C=CCC1(C2=CCCC2)C(=O)NC(=O)N(C)C1=O (configuration not stated) | 1.89
17 | CCC1(C2=CC3CCC(C2)C3)C(=O)NC(=O)NC1=O (configuration not stated) | 2.53
18 | CCCCCCCCC1(CC)C(=O)NC(=O)NC1=O | 3.08
19 | C=CCC1(C(C)C)C(=O)NC(=O)NC1=O | 1.22
20 | C=C(Br)CC1(C(C)CC)C(=O)NC(=O)N(C)C1=O (configuration not stated) | 2.43
21 | CCCCCCCC1(CC)C(=O)NC(=O)NC1=O | 2.91
22 | CCC1(C2=CCCCC2)C(=O)NC(=O)N(C)C1=O (configuration not stated) | 2.25
